Test results: patent publication US9593305B2, “Differentiation of pluripotent stem cells” (Janssen Biotech, Inc., priority 2008, dated 2017)

System: H1 human embryonic stem cells
Test: Analogue screening in combination with only GDF-8, SOX17 (Example 21, Tables 18 and 19)
Assay type: cell-based
Set-up: Sox17 Expression: % of positive control / Cell Number: % of positive control: tested at 2.5 µM
Conditions: for Cell Number: Average Total Cell Number / Sox17 Expression: Average Total Intensity / Cell Number: % of positive control / Sox17 Expression: % of positive control: compound in combination with GDF8; for Cell Number: Average Total Cell Number / Sox17 Expression: Average Total Intensity: four assay plates; for Cell Number: % of positive control / Sox17 Expression: % of positive control: relative to Activin A/Wnt3a of the same plate; for Sox17 Expression, % of positive control: 2.5 μM compound with 200 ng/ml GDF-8, four days, Table 19 hits
In short: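 H1 human ES cells treated four days with 200 ng/ml GDF-8 plus 2.5 μM compound (day 1, 0.5% FCS), GDF-8 alone in 2% FCS on day 3; triplicates. Fixed cells immunostained for SOX17 with Hoechst counterstain, imaged at 15 fields/well; total SOX17 intensity normalized to activin A/Wnt3a positive control.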

SMILES | Cell Number: Average Total Cell Number | Sox17 Expression: Average Total Intensity | Cell Number: % of positive control [%] | Sox17 Expression: % of positive control [%] | Sox17 Expression, % of positive control
CCN1CC(=O)NCCCc2cc(ccc2F)-c2ncnc(n2)Nc2cc(Cl)cc(c2)C1 [Compound 25, 10-Chloro-14-ethyl-22-fluoro-3,5,7,14,17,27-hexaazatetracyclo[19.3.1.1˜2,6˜0.1˜8,12˜]heptacosa-1(25), 2(27), 3,5,8(26), 9,11,21,23-nonaen-16-one] | 3879 | 1.76E+07 | 24.4 | 5.0 | 
O=C1NCCCc2cncc(c2)-c2ncnc(n2)Nc2cccc(c2)CN2CCC1CC2 [Compound 22, 1,8,10,12,16,22,30-Heptaazapentacyclo[22.2.2.1-3,7˜0.1˜9,13˜1-14,18˜]hentriaconta-3(31), 4,6,9(30), 10,12,14(29), 15,17-nonaen-23-one] | 6727 | 1.06E+08 | 42.4 | 29.8 | 27.4 % of positive control
CCN1CC(=O)NCCCc2cncc(c2)-c2ncnc(n2)Nc2cc(Cl)cc(c2)C1 [Compound 35, 10-Chloro-14-ethyl-3,5,7,14,17,23,27-heptaazatetracyclo[19.3.1.1˜2,6˜0.1˜8,12]Theptacosa-1(25), 2(27), 3,5,8(26), 9,11,21,23-nonaen-16-one] | 7746 | 1.35E+08 | 48.8 | 38.0 | 33.7 % of positive control
C=CCN1CC(=O)NCCCc2cncc(c2)-c2ncnc(n2)Nc2cccc(c2)C1 [Compound 40, 14-Prop-2-en-1-yl-3,5,7,14,17,23,27-heptaazatetracyclo[19.3.1.1˜2.6˜0.1˜8,12˜]heptacosa-1(25), 2(27), 3,5,8(26), 9,11,21,23-nonaen-16-one] |  |  |  |  | 52.2 % of positive control
O=C1NCCCc2cncc(c2)-c2ncnc(n2)Nc2cccc(c2)CN2CCC[C@@H]12 [Compound 18, (18S)-3,5,7,14,20,26,30-Heptaazapentacyclo[22.3.1.1˜2,6˜1˜8,12˜0.0˜14,18˜]triaconta-1(28), 2(30), 3,5,8(29), 9,11,24,26-nonaen-19-one] | 1921 | 2.94E+07 | 13.8 | 9.5 | 
O=C1CCN2CCN(CC2)Cc2cccc(c2)Nc2ncnc(n2)-c2ccnc(c2)NCCCN1 [Compound 13, 1,8,10,12,17,19,23,27,33-Nonaazapentacyclo[25.2.2.1˜3,7˜0.1˜9.13˜1˜14.18˜]tetratriaconta-3(34), 4,6,9(33), 10,12,14(32), 15,17-nonaen-24-one] | 3123 | 2.44E+07 | 20.8 | 7.1 | 
CN1CCC(=O)NCCCNc2cccc(c2)-c2ncnc(n2)Nc2cccc(c2)C1 [Compound 21, 14-Methyl-3,5,7,14,18,22,29-heptaazatetracyclo[21.3.1.1˜2,6˜0.1˜8,12˜]nonacosa-1(27), 2(29), 3,5,8(28), 9,11,23,25-nonaen-17-one] | 371 | 2.36E+06 | 2.3 | 0.7 | 
O=C1CCN2CCN(CC2)Cc2cc(Cl)cc(c2)Nc2ncnc(n2)-c2cncc(c2)CCCN1 [Compound 34, 5-Chloro-1,8,10,12,16,22,26,32-octaazapentacyclo[24.2.2.1˜3.7˜0.1˜9,13˜0.1˜14.18˜]tritriaconta-3(33), 4,6,9(32), 10,12,14(31), 15,17-nonaen-23-one] |  |  |  |  | 68.0 % of positive control
CCN1CC(=O)NCCCc2cccc(c2)-c2ncnc(n2)Nc2cccc(c2)C1 [Compound 15, 14-Ethyl-3,5,7,14,17,27-hexaazatetracyclo[19.3.1.1˜2,6˜1-8.12˜]heptacosa-1(25), 2(27), 3,5,8(26), 9,11,21,23-nonaen-16-one] | 4383 | 3.57E+07 | 28.7 | 10.6 | 
O=C1CCN2CCN(CC2)Cc2cccc(c2)Nc2ncnc(n2)-c2cncc(c2)CCCN1 [Compound 23, 1,8,10,12,16,22,26,32-Octaazapentacyclo[24.2.2.1-3,7˜0.1˜9,13˜0.1˜14,18˜]tritriaconta-3(33), 4,6,9(32), 10,12,14(31), 15,17-nonaen-23-one] | 8758 | 1.16E+08 | 58.4 | 33.7 | 29.8 % of positive control
O=C1NCCCc2cncc(c2)-c2ncnc(n2)Nc2cccc(c2)CN2CCCC1C2 (stereo not shown) [Compound 17, 3,5,7,14,20,26,31-Heptaazapentacyclo[22.3.1.1-2,6˜1˜8,12˜1˜14,18˜]hentriaconta-1(28), 2(31), 3,5,8(30), 9,11,24,26-nonaen-19-one] |  |  |  |  | 23.6 % of positive control
CN1CCC(=O)NCCCc2cncc(c2)-c2ncnc(n2)Nc2cccc(c2)C1 [Compound 19, 14-Methyl-3,5,7,14,18,24,28-heptaazatetracyclo[20.3.1.1˜2,6˜0.1˜8,12˜]octacosa-1(26), 2(28), 3,5,8(27), 9,11,22,24-nonaen-17-one] | 12569 | 2.40E+08 | 83.8 | 69.5 | 69.5 % of positive control
CCN1CC(=O)NCCCc2cc(ccn2)-c2ncnc(n2)Nc2cc(Cl)cc(c2)C1 [Compound 14, 10-Chloro-14-ethyl-3,5,7,14,17,22,27-heptaazatetracyclo[19.3.1.1˜2,6˜1˜8,12˜]heptacosa-1(25), 2(27), 3,5,8(26), 9,11,21,23-nonaen-16-one] | 274 | 1.56E+05 | 2.0 | 0.1 | 
O=C1NCCCc2cncc(c2)-c2ncnc(n2)Nc2cc(Cl)cc(c2)CN2CCCC1C2 (stereo not shown) [Compound 37, 10-Chloro-3,5,7,14,20,26,31-heptaazapentacyclo[22.3.1.1˜2,6˜0.1˜8,12˜0.1˜14,18˜]hentriaconta-1(28), 2(31), 3,5,8(30), 9,11,24,26-nonaen-19-one] | 4187 | 3.11E+07 | 26.4 | 8.8 | 
CN1CCCC(=O)NCCCc2cncc(c2)-c2ncnc(n2)Nc2cccc(c2)C1 [Compound 20, 14-Methyl-3,5,7,14,19,25,29-heptaazatetracyclo[21.3.1.1˜2,6˜0.1˜8,12˜]nonacosa-1(27), 2(29), 3,5,8(28), 9,11,23,25-nonaen-18-one] | 2793 | 6.77E+06 | 17.6 | 1.9 | 
